{"source": "patent US20070128217A1", "about": "(priority 2003, published 2007)", "key": {"[1]": {"system": "rabbit serum obtained by immunizing a rabbit with the SARS-CoV strain Frankfurt 1", "type": "binding", "parameters": "Binding of a rabbit serum to linear peptides / Binding of a rabbit serum to looped peptides / Rabbit serum linear peptides / Rabbit serum looped peptides / Binding of a rabbit serum to linear peptides of protein N of SARS-CoV Urbani (Rabbit serum linear peptides) / Binding of a rabbit serum to looped/cyclic peptides of protein N of SARS-CoV Urbani (Rabbit serum looped peptides): unit not given here"}, "[2]": {"system": "control sera (pooled serum of ten healthy LUMC hospital workers; commercial negative donor pooled serum from the Dutch bloodbank)", "type": "binding, human", "parameters": "Binding of Control serum LUMC to linear peptides / Binding of Control serum Blood-bank to linear peptides / Binding of Control serum LUMC to looped peptides / Binding of Control Serum Blood-Bank to Looped peptides / Binding of Control serum LUMC to linear peptides of the protein M of SARS-CoV Urbani / Binding of Control serum Blood-bank to linear peptides of the protein M of SARS-CoV Urbani / Binding of Control serum LUMC to looped peptides of the protein M of SARS-CoV Urbani / Binding of Control Serum Blood-Bank to Looped peptides of the protein M of SARS-CoV Urbani: unit not given here"}, "[3]": {"system": "recombinant human anti-SARS-CoV antibody 03-018", "type": "binding", "parameters": "Binding of antibody 03-018 to linear peptides of the N protein of SARS-CoV Urbani / Binding of antibody 03-018 to looped/cyclic peptides of the N protein of SARS-CoV Urbani: unit not given here"}, "[4]": {"system": "antibodies in sera from SARS patients (sera 1a, 1b, 2, 6, 37, 62, London, SARS-yellow, SARS-green)", "type": "binding, human", "parameters": "Binding of serum 6 to linear peptides of protein X1 of SARS-CoV Urbani / Binding of serum 37 to linear peptides of protein X1 of SARS-CoV Urbani / Binding of serum 6 to looped/cyclic peptide (PEPSCAN-ELISA) / Binding of serum 37 to looped/cyclic peptide (PEPSCAN-ELISA) / Binding of serum 37 to looped/cyclic peptides of protein X1 of SARS-CoV Urbani / Binding of serum 6 to linear peptides of protein X2 / Binding of serum 37 to linear peptides of protein X2 / Binding of serum 37 to looped/cyclic peptides of protein X2 of SARS-CoV Urbani / Binding of serum 6 to linear peptides of protein M of SARS-CoV Urbani / Binding of serum 37 to linear peptides of protein M of SARS-CoV Urbani / Binding of serum 6 to looped/cyclic peptides of protein M of SARS-CoV Urbani / Binding of serum 37 to looped/cyclic peptides of protein M of SARS-CoV Urbani / Binding of serum 6 to linear peptides of protein X3 of SARS-CoV Urbani / Binding of serum 37 to linear peptides of protein X3 of SARS-CoV Urbani / Binding of serum 37 to looped/cyclic peptides of protein X3 of SARS-CoV Urbani / Binding of serum 6 to linear peptides of protein X4 of SARS-CoV Urbani / Binding of serum 37 to linear peptides of protein X4 of SARS-CoV Urbani / Binding of serum 37 to looped/cyclic peptides of protein X4 of SARS-CoV Urbani / Binding of serum 6 to linear peptides of protein X5 of SARS-CoV Urbani / Binding of serum 37 to linear peptides of protein X5 of SARS-CoV Urbani / Binding of serum 37 to looped/cyclic peptides of protein X5 of SARS-CoV Urbani / Binding of serum 6 to linear peptides of protein N of SARS-CoV Urbani / Binding of serum 37 to linear peptides of protein N of SARS-CoV Urbani / Binding of serum 6 to linear peptide (PEPSCAN-ELISA) / Binding of serum 1a to looped/cyclic peptides of protein N of SARS-CoV Urbani / Binding of serum 1b to looped/cyclic peptides of protein N of SARS-CoV Urbani / Binding of serum 2 to looped/cyclic peptides of protein N of SARS-CoV Urbani / Binding of serum 6 to looped/cyclic peptides of protein N of SARS-CoV Urbani / Binding of serum 37 to looped/cyclic peptides of protein N of SARS-CoV Urbani / Binding of serum 62 to looped/cyclic peptides of protein N of SARS-CoV Urbani / Binding of serum London to looped/cyclic peptides of protein N of SARS-CoV Urbani / Binding of serum SARS-green to looped/cyclic peptides of protein N of SARS-CoV Urbani: unit not given here"}}, "data": [{"sequence": "QGVPINTNSGPDDQI", "values": [{"measurement": "Binding of a rabbit serum to linear peptides of protein N of SARS-CoV Urbani (Rabbit serum linear peptides)", "setting": "[1]", "result": 0.2}, {"measurement": "Binding of a rabbit serum to looped/cyclic peptides of protein N of SARS-CoV Urbani (Rabbit serum looped peptides)", "setting": "[1]", "result": 0.8}, {"measurement": "Binding of Control Serum Blood-Bank to Looped peptides", "setting": "[2]", "result": 1.1}, {"measurement": "Binding of Control serum Blood-bank to linear peptides", "setting": "[2]", "result": 0.6}, {"measurement": "Binding of Control serum LUMC to linear peptides", "setting": "[2]", "result": 0.6}, {"measurement": "Binding of Control serum LUMC to looped peptides", "setting": "[2]", "result": 0.8}, {"measurement": "Binding of antibody 03-018 to linear peptides of the N protein of SARS-CoV Urbani", "setting": "[3]", "result": 0.1}, {"measurement": "Binding of antibody 03-018 to looped/cyclic peptides of the N protein of SARS-CoV Urbani", "setting": "[3]", "result": 0.1}, {"measurement": "Binding of serum 1a to linear peptides of protein N of SARS-CoV Urbani", "setting": "[4]", "result": 0.3}, {"measurement": "Binding of serum 1a to looped/cyclic peptides of protein N of SARS-CoV Urbani", "setting": "[4]", "result": 0.5}, {"measurement": "Binding of serum 1b to linear peptides of protein N of SARS-CoV Urbani", "setting": "[4]", "result": 0.2}, {"measurement": "Binding of serum 1b to looped/cyclic peptides of protein N of SARS-CoV Urbani", "setting": "[4]", "result": 0.4}, {"measurement": "Binding of serum 2 to linear peptides of protein N of SARS-CoV Urbani", "setting": "[4]", "result": 0.2}, {"measurement": "Binding of serum 2 to looped/cyclic peptides of protein N of SARS-CoV Urbani", "setting": "[4]", "result": 0.6}, {"measurement": "Binding of serum 6 to linear peptides of protein N of SARS-CoV Urbani", "setting": "[4]", "result": 0.2}, {"measurement": "Binding of serum 6 to looped/cyclic peptides of protein N of SARS-CoV Urbani", "setting": "[4]", "result": 0.4}, {"measurement": "Binding of serum 37 to linear peptides of protein N of SARS-CoV Urbani", "setting": "[4]", "result": 0.9}, {"measurement": "Binding of serum 37 to looped/cyclic peptides of protein N of SARS-CoV Urbani", "setting": "[4]", "result": 0.6}, {"measurement": "Binding of serum 62 to linear peptides of protein N of SARS-CoV Urbani", "setting": "[4]", "result": 0.6}, {"measurement": "Binding of serum 62 to looped/cyclic peptides of protein N of SARS-CoV Urbani", "setting": "[4]", "result": 1.0}, {"measurement": "Binding of serum London to linear peptides of protein N of SARS-CoV Urbani", "setting": "[4]", "result": 0.5}, {"measurement": "Binding of serum London to looped/cyclic peptides of protein N of SARS-CoV Urbani", "setting": "[4]", "result": 0.6}, {"measurement": "Binding of serum SARS-green to linear peptides of protein N of SARS-CoV Urbani", "setting": "[4]", "result": 0.6}, {"measurement": "Binding of serum SARS-green to looped/cyclic peptides of protein N of SARS-CoV Urbani", "setting": "[4]", "result": 1.3}, {"measurement": "Binding of serum SARS-yellow to linear peptides of protein N of SARS-CoV Urbani", "setting": "[4]", "result": 0.6}, {"measurement": "Binding of serum SARS-yellow to looped/cyclic peptides of protein N of SARS-CoV Urbani", "setting": "[4]", "result": 1.7}]}, {"sequence": "YKHWPQIAQFAPSAS", "values": [{"measurement": "Binding of a rabbit serum to linear peptides of protein N of SARS-CoV Urbani (Rabbit serum linear peptides)", "setting": "[1]", "result": 0.1}, {"measurement": "Binding of a rabbit serum to looped/cyclic peptides of protein N of SARS-CoV Urbani (Rabbit serum looped peptides)", "setting": "[1]", "result": 0.5}, {"measurement": "Control Serum Blood-Bank Looped peptides", "setting": "[2]", "result": 0.8}, {"measurement": "Control serum Blood-bank linear peptides", "setting": "[2]", "result": 0.9}, {"measurement": "Control serum LUMC linear peptides", "setting": "[2]", "result": 0.7}, {"measurement": "Control serum LUMC looped peptides", "setting": "[2]", "result": 0.8}, {"measurement": "Binding of antibody 03-018 to linear peptides of the N protein of SARS-CoV Urbani", "setting": "[3]", "result": 0.1}, {"measurement": "Binding of antibody 03-018 to looped/cyclic peptides of the N protein of SARS-CoV Urbani", "setting": "[3]", "result": 0.2}, {"measurement": "Binding of serum 1a to linear peptides of protein N of SARS-CoV Urbani", "setting": "[4]", "result": 0.3}, {"measurement": "Binding of serum 1a to looped/cyclic peptides of protein N of SARS-CoV Urbani", "setting": "[4]", "result": 0.5}, {"measurement": "Binding of serum 1b to linear peptides of protein N of SARS-CoV Urbani", "setting": "[4]", "result": 0.1}, {"measurement": "Binding of serum 1b to looped/cyclic peptides of protein N of SARS-CoV Urbani", "setting": "[4]", "result": 0.3}, {"measurement": "Binding of serum 2 to linear peptides of protein N of SARS-CoV Urbani", "setting": "[4]", "result": 0.2}, {"measurement": "Binding of serum 2 to looped/cyclic peptides of protein N of SARS-CoV Urbani", "setting": "[4]", "result": 0.5}, {"measurement": "Binding of serum 6 to linear peptides of protein N of SARS-CoV Urbani", "setting": "[4]", "result": 0.2}, {"measurement": "Binding of serum 6 to looped/cyclic peptides of protein N of SARS-CoV Urbani", "setting": "[4]", "result": 0.3}, {"measurement": "Binding of serum 37 to linear peptides of protein N of SARS-CoV Urbani", "setting": "[4]", "result": 0.8}, {"measurement": "Binding of serum 37 to looped/cyclic peptides of protein N of SARS-CoV Urbani", "setting": "[4]", "result": 0.7}, {"measurement": "Binding of serum 62 to linear peptides of protein N of SARS-CoV Urbani", "setting": "[4]", "result": 0.7}, {"measurement": "Binding of serum 62 to looped/cyclic peptides of protein N of SARS-CoV Urbani", "setting": "[4]", "result": 0.7}, {"measurement": "Binding of serum London to linear peptides of protein N of SARS-CoV Urbani", "setting": "[4]", "result": 0.6}, {"measurement": "Binding of serum London to looped/cyclic peptides of protein N of SARS-CoV Urbani", "setting": "[4]", "result": 0.5}, {"measurement": "Binding of serum SARS-green to linear peptides of protein N of SARS-CoV Urbani", "setting": "[4]", "result": 0.4}, {"measurement": "Binding of serum SARS-green to looped/cyclic peptides of protein N of SARS-CoV Urbani", "setting": "[4]", "result": 0.4}, {"measurement": "Binding of serum SARS-yellow to linear peptides of protein N of SARS-CoV Urbani", "setting": "[4]", "result": 0.7}, {"measurement": "Binding of serum SARS-yellow to looped/cyclic peptides of protein N of SARS-CoV Urbani", "setting": "[4]", "result": 0.6}]}]}
